Assay [1] concerns the target T1, FtsE (FtsEEc) (Escherichia coli, UniProt P0A9R7, K41A).
T1 construct: ftsE ORF in His-pBAD18; His-tagged, soluble, expressed in E. coli C41; Ni-NTA and two SEC rounds
As to the kind of experiment: MANT-ATP fluorescence binding. To be noted: labelled compound; 25 mM HEPES pH 7.5, 50 mM KCl, 10 mM MgCl2; Walker A mutant.

The target of assay [2] is T2, FtsE (FtsEEc) (Escherichia coli, UniProt P0A9R7).
T2 construct: ftsE ORF in His-pBAD18; His-tagged, soluble, expressed in E. coli C41; Ni-NTA and two SEC rounds
T2 sequence (P0A9R7 1-222): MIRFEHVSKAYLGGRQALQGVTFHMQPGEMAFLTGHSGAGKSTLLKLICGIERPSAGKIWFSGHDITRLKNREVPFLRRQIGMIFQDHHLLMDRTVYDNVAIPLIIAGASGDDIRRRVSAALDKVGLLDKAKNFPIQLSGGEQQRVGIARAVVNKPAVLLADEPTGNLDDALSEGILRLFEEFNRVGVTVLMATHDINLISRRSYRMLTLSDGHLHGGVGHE
As to the kind of experiment: fluorescence titration, double reciprocal plot. The format is binding.

T1 sequence (P0A9R7 whole entry K41A): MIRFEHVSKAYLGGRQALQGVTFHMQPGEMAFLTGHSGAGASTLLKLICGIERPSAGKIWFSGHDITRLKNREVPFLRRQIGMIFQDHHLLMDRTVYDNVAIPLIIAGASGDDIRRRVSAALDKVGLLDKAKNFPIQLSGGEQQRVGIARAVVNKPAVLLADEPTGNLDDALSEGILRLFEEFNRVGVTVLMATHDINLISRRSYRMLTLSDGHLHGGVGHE

As for `CNc1ccccc1C(=O)O[C@H]1[C@@H](O)[C@H](n2cnc3c(N)ncnc32)O[C@@H]1COP(=O)(O)OP(=O)(O)OP(=O)(O)O` [MANT-ATP], on FtsE (FtsEEc) [1], the MANT-ATP fluorescence binding entry was “ATP binding affinity for FtsE^K41A, and it was found to be much lower than wildtype”. Also, binding on FtsE (FtsEEc) [2] was put at a Kd of 0.0215 ± 0.0022 µM.

These data come from PMC7791547, “Biochemical characterization of an E. coli cell division factor FtsE shows ATPase cycles similar to the NBDs of ABC-transporters” (Bioscience Reports, 2021).
